Read-outs that look alike come from different tables or passages of the source.
Experiments:
PXR = PXR (Homo sapiens (Human), UniProt O75469); test: Human PXR activation assay (luciferase reporter gene assay, DPX2 cells); type: cell-based; conditions: human
Experimental: A stably transformed tumor cell line (DPX2) was plated on 96-well microtiter plates. DPX2 cells harbor the human PXR gene (NR112) and a luciferase reporter gene linked to two promoters identified in the human CYP3A4 gene, namely XREM and PXRE. […] The number of viable cells was determined and the reporter gene activity was assessed. Positive control: […]

OCT2 = OCT2 (Homo sapiens (Human), UniProt O15244); test: OCT2 inhibition assay (14C-TEA uptake, OCT2-transfected MDCKII cells); type: cell-based
Experimental: On assay day, cells were trypsinized and resuspended in Krebs-Henseleit Buffer (KHB), pH 7.4 at […]. Cells were preincubated for 15 min in assay plate before addition of test compound or substrate. Test compounds were serially diluted in DMSO and then spiked (2 μL) into in 0.4 mL KHB buffer containing wild-type or OCT2-transfected cells and incubated for 10 minutes. Assay was initiated with the addition of 0.1 mL of 100 μM ^14C-TEA in KHB buffer (20 μM final concentration after mixing). The concentration of TEA is based on the Km. After 10 minutes of incubation, the assay mixture was quenched with addition of 0.5 mL of ice-cold 1×PBS buffer. Samples were then centrifuged at 1000 rpm for 5 min and supernatants were removed. Wash steps were repeated four times with ice-cold PBS. Finally, the cell pellets were lysed with 0.2N NaOH and let sit at room temperature for at least 30 min to ensure complete lysis. Samples were then counted on liquid scintillation counter and dpm counts were used to perform the following calculations.

in vitro = conditions: human
[1] = Pharmacokinetic analysis following intravenous administration to beagle dogs; type: in vivo; conditions: male, dog, 0.5 mg/kg
Experimental: Pharmacokinetic analysis was performed on various test compounds following intravenous or oral administration to beagle dogs.
For pharmacokinetic analysis of intravenously administered compounds, the test compounds were formulated in 5% Ethanol, 55% PEG 300, and 40% water at 0.1 mg/mL for IV infusion. For pharmacokinetic analysis of orally administered compounds, the test compounds were formulated as an aqueous suspension in 0.1% Tween 20, 0.5% HPMC LV 100 in Di Water at 1 mg/kg.
Each dosing group consisted of 3 male, non-naïve purebred beagle dogs. At dosing, the animals weighed between 10 to 13 kg. The animals were fasted overnight prior to dose administration and up to 4 hr after dosing. For studies of intravenous administration, the test article was administered to the animals by intravenous infusion over 30 min. The rate of infusion was adjusted according to the body weight of each animal to deliver a dose of 0.5 mg/kg. For studies of oral administration, the test article was administered according to the body weight of each animal to deliver a dose of 1 mg/kg.
For pharmacokinetic analysis of intravenously administered compounds, serial venous blood samples (approximately 1 mL each) were taken from each animal at 0, 0.250, 0.483, 0.583, 0.750, 1.00, 1.50, 2.00, 4.00, 8.00, 12.0, and 24.0 hours after dosing. The blood samples were collected into Vacutainer™ tubes containing EDTA-K2 as the anti-coagulant and were immediately placed on wet ice pending centrifugation for plasma. An LC/MS/MS method was used to measure the concentration of the test compound in plasma. An aliquot of 100 μL of each plasma sample was added to a clean 96 well plate, and 400 μL of cold acetonitrile/internal standard solution (ACN)/(ISTD) was added. After protein precipitation, an aliquot of 110 μL of the supernatant was transferred to a clean 96-well plate and diluted with 300 μL of water. An aliquot of 25 μL of the above solution was injected into a TSQ Quantum Ultra LC/MS/MS system utilizing a Hypersil Gold C18 HPLC column (50×3.0 mm, 5 μm; Thermo-Hypersil Part #25105-053030). An Agilent 1200 series binary pump (P/N G1312A Bin Pump) was used for elution and separation, and an HTS Pal autosampler (LEAP Technologies, Carrboro, N.C.) was used for sample injection. A TSQ Quantum Ultra triple quadrupole mass spectrometer was utilized in selective reaction monitoring mode (Thermo Finnigan, San Jose, Calif.). Liquid chromatography was performed using two mobile phases: mobile phase A contained 1% acetonitrile in 2.5 mM ammonium formate aqueous solution with pH of 3.0, and mobile phase B contained 90% acetonitrile in 10 mM ammonium formate with pH of 4.6. Non-compartmental pharmacokinetic analysis was performed on the plasma concentration-time data. The resulting data are shown in the first three columns of Table 4. In Table 4, CL refers to clearance, which characterizes the rate at which drug is removed from plasma. The lower the clearance of a drug is, the longer the elimination half-life is in the body. Vss refers to the steady state volume of distribution and indicates how well a drug is distributed into the tissues. The larger the Vss is, the longer the elimination half-life is in the body. MRT refers to mean residence time, which is a measure of the average time molecules exist in the body.

[2] = 15 μM, relative to maximum fold induction by 10 or 20 μM rifampicin, DPX2 cells, 24 hours, read-out: % Emax at 15 μM
[3] = OCT2 mediated uptake of 14C-TEA (20 μM), MDCKII cells, read-out: IC50
[4] = MT-4 cells, mock-infected, CC50 nM in MT-4, MT-4 cells, 5 days incubation

OCT2, sequence (O15244 whole entry): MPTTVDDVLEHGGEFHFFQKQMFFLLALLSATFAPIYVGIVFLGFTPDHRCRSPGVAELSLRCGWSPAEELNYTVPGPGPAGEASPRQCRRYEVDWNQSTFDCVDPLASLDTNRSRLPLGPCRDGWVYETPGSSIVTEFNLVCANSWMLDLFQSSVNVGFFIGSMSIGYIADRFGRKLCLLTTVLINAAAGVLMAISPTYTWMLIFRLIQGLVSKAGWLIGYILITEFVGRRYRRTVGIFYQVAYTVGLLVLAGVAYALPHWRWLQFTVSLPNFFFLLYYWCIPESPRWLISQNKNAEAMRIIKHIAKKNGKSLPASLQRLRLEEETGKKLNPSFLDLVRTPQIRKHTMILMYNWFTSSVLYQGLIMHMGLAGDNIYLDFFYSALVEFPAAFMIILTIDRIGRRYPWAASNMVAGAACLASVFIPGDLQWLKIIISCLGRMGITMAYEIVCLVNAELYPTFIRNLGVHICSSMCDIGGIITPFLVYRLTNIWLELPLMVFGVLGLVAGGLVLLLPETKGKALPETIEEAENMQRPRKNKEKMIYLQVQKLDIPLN
PXR, sequence (O75469 whole entry): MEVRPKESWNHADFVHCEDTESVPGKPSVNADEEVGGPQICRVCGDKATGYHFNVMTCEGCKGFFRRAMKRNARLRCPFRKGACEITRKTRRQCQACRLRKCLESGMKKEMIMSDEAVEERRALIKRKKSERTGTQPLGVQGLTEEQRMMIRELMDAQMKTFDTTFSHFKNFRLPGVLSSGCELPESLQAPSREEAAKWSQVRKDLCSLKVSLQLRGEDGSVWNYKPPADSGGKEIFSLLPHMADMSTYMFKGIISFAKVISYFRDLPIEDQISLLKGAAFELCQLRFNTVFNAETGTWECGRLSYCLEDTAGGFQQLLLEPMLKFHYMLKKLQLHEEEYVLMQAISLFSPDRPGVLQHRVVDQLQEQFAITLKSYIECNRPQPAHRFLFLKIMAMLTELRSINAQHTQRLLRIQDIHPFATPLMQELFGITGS

| SMILES | Emax at 24 h, 15 µM (PXR; [2]) [%] | IC50 (OCT2) [µM] | CC50 at 5 days (in vitro; CC50 nM in MT-4) [nM] | IC50 (OCT2; [3]) [µM] | Emax at 24 h, 15 µM (PXR) [%] | further results |
| --- | --- | --- | --- | --- | --- | --- |
| CC1CC2CC1OC1Cn3cc(C(=O)NCc4ccc(F)cc4F)c(=O)c(O)c3C(=O)N21 (single isomer, unassigned) [Compound 40] | 0 | 0.204 | 9560 |  |  |  |
| O=C(NCc1c(F)cc(F)cc1F)c1cn2c(c(O)c1=O)C(=O)N1[C@H]3C[C@H](C3)[C@H]1C2 (single isomer, unassigned) [Compound 96] | 11 |  |  | 1.36 |  | CC50 at 5 days (in vitro; [4]): 26600 nM |
| O=C(NCc1ccc(F)cc1F)c1cn2c(c(O)c1=O)C(=O)N1C(C2)[C@H]2CC[C@@H]1C2 (stereo in doubt) [Compound 48, (1S,4R,12aS)-N-(2,4-difluorobenzyl)-7-hydroxy-6,8-dioxo-1,2,3,4,6,8,12,12a-octahydro-1,4-methanodipyrido[1,2-a:1′,2′-d]pyrazine-9-carboxamide] | 5 | 4.91 | 14000 |  |  |  |
| C[C@@H]1CCO[C@H]2Cn3cc(C(=O)NC4(c5ccc(F)cc5F)CC4)c(=O)c(O)c3C(=O)N12 [Compound 5, (4R,12aS)-N-(1-(2,4-difluorophenyl)cyclopropyl)-7-hydroxy-4-methyl-6,8-dioxo-3,4,6,8,12,12a-hexahydro-2H-[1,3]oxazino[3,2-d]pyrido[1,2-a]pyrazine-9-carboxamide] | 32 |  |  | 2.23 |  | CC50 at 5 days (in vitro; [4]): 10500 nM |
| C[C@@H](NC(=O)c1cn2c(c(O)c1=O)C(=O)N1[C@@H]3CC[C@@H](C3)O[C@H]1C2)c1ccc(F)cc1F [Compound 11, (2S,5R,13aS)-N—((R)-1-(2,4-difluorophenyl)ethyl)-8-hydroxy-7,9-dioxo-2,3,4,5,7,9,13,13a-octahydro-2,5-methanopyrido[1′,2′:4,5]pyrazino[2,1-b][1,3]oxazepine-10-carboxamide] |  | 10 | 10300 |  |  |  |
| C[C@H](NC(=O)c1cn2c(c(O)c1=O)C(=O)N1[C@@H]3CC[C@@H](C3)O[C@H]1C2)c1ccc(F)cc1F [Compound 13, (2S,5R,13aS)-N—((S)-1-(2,4-difluorophenyl)ethyl)-8-hydroxy-7,9-dioxo-2,3,4,5,7,9,13,13a-octahydro-2,5-methanopyrido[1′,2′:4,5]pyrazino[2,1-b][1,3]oxazepine-10-carboxamide] |  | 0.61 | 12700 |  |  |  |
| O=C(N[C@@H](c1ccc(F)cc1F)C(F)(F)F)c1cn2c(c(O)c1=O)C(=O)N1C(C2)O[C@H]2CC[C@@H]1C2 (stereo partly drawn) [Compound 36, (2S,5R)-N—((S)-1-(2,4-difluorophenyl)-2,2,2-trifluoroethyl)-8-hydroxy-7,9-dioxo-2,3,4,5,7,9,13,13a-octahydro-2,5-methanopyrido[1′,2′:4,5]pyrazino[2,1-b][1,3]oxazepine-10-carboxamide] |  | 10 | 11400 |  | 3 |  |
| C[C@H]1C[C@@H]2C[C@H]1O[C@H]1Cn3cc(C(=O)NCc4ccc(F)cc4F)c(=O)c(O)c3C(=O)N21 [Compound 39, (2R,3S,5R,3aS)-N-(2,4-difluorobenzyl)-8-hydroxy-3-methyl-7,9-dioxo-2,3,4,5,7,9,13,13a-octahydro-2,5-methanopyrido[1′,2′:4,5]pyrazino[2,1-b][1,3]oxazepine-10-carboxamide] | 6 | 0.358 | 12200 |  |  |  |
| O=C(NCc1c(F)cc(F)cc1F)c1cn2c(c(O)c1=O)C(=O)N1[C@@H]3CC[C@@H](C3)O[C@H]1C2 [Compound 45, (13aS)-8-hydroxy-7,9-dioxo-N-(2,4,6-trifluorobenzyl)-2,3,4,5,7,9,13,13a-octahydro-2,5-methanopyrido[1′,2′:4,5]pyrazino[2,1-b][1,3]oxazepine-10-carboxamide] | 19 |  |  | 0.137 |  | CC50 at 5 days (in vitro; [4]): 15800 nM |
| O=C(NCc1c(F)cc(F)cc1F)c1cn2c(c(O)c1=O)C(=O)N1[C@H]3CC[C@H](C3)[C@H]1C2 [Compound 55, (1R,4S,12aS)-7-hydroxy-6,8-dioxo-N-(2,4,6-trifluorobenzyl)-1,2,3,4,6,8,12,12a-octahydro-1,4-methanodipyrido[1,2-a:1′,2′-d]pyrazine-9-carboxamide] |  | 0.476 | 11100 |  | 24 | MRT ([1]; beagle, in vivo, iv): 4.2 h; clearance ([1]; beagle, in vivo, iv): 0.967 mL/min/kg; Vd ([1]; plasma, beagle dogs, IV infusion over 30 min, read-out: Vss): 0.24 L/kg |
| O=C(NCc1ccc(F)cc1Cl)c1cn2c(c(O)c1=O)C(=O)N1[C@H]3CC[C@H](C3)O[C@@H]1C2 [Compound 63, (2R,5S,13aR)-N-(2-chloro-4-fluorobenzyl)-8-hydroxy-7,9-dioxo-2,3,4,5,7,9,13,13a-octahydro-2,5-methanopyrido[1′,2′:4,5]pyrazino[2,1-b][,3]oxazepine-10-carboxamide] | 13 |  | 3160 | 0.042 |  |  |
| O=C(NCc1cc(F)c(F)cc1F)c1cn2c(c(O)c1=O)C(=O)N1[C@H]3CC[C@H](C3)O[C@@H]1C2 [Compound 64, (2R,5S,13aR)-8-hydroxy-7,9-dioxo-N-(2,4,5-trifluorobenzyl)-2,3,4,5,7,9,13,13a-octahydro-2,5-methanopyrido[1′,2′:4,5]pyrazino[2,1-b][1,3]oxazepine-10-carboxamide] |  |  | 3330 | 0.094 | 8 |  |
| O=C(NCc1c(F)cc(F)cc1F)c1cn2c(c(O)c1=O)C(=O)N1[C@@H]3C[C@@H](C[C@H]3F)[C@@H]1C2 [Compound 82, (1S,3R,4R,12aR)-3-fluoro-7-hydroxy-6,8-dioxo-N-(2,4,6-trifluorobenzyl)-1,2,3,4,6,8,12,12a-octahydro-1,4-methanodipyrido[1,2-a:1′,2′-d]pyrazine-9-carboxamide] |  | 10 | 30400 |  | 1 |  |
| C[C@H]1C[C@@H]2C[C@H]1N1C(=O)c3c(O)c(=O)c(C(=O)NCc4c(F)cc(F)cc4F)cn3C[C@@H]21 [Compound 99, (1R,3S,4R,12aR)-7-hydroxy-3-methyl-6,8-dioxo-N-(2,4,6-trifluorobenzyl)-1,2,3,4,6,8,12,12a-octahydro-1,4-methanodipyrido[1,2-a:1′,2′-d]pyrazine-9-carboxamide] |  | 1.51 | 8480 |  | 17 |  |
| O=C(NCc1ccc(F)cc1F)c1cn2c(c(O)c1=O)C(=O)N1[C@H]3CC[C@H](CC3)[C@H]1C2 [Compound 100, (1R,4R,12aS)-N-(2,4-difluorobenzyl)-7-hydroxy-6,8-dioxo-1,2,3,4,6,8,12,12a-octahydro-1,4-ethanodipyrido[1,2-a:1′,2′-d]pyrazine-9-carboxamide] | 45 |  |  | 0.45 |  | CC50 at 5 days (in vitro; [4]): 11600 nM |
